Reference: US8846947B2, “Benzimidazoles and related analogs as sirtuin modulators” (GlaxoSmithKline LLC, priority 2008, dated 2014)

Target: T1, SIRT1 (Homo sapiens, UniProt Q96EB6)
T1 sequence (Q96EB6 1-747): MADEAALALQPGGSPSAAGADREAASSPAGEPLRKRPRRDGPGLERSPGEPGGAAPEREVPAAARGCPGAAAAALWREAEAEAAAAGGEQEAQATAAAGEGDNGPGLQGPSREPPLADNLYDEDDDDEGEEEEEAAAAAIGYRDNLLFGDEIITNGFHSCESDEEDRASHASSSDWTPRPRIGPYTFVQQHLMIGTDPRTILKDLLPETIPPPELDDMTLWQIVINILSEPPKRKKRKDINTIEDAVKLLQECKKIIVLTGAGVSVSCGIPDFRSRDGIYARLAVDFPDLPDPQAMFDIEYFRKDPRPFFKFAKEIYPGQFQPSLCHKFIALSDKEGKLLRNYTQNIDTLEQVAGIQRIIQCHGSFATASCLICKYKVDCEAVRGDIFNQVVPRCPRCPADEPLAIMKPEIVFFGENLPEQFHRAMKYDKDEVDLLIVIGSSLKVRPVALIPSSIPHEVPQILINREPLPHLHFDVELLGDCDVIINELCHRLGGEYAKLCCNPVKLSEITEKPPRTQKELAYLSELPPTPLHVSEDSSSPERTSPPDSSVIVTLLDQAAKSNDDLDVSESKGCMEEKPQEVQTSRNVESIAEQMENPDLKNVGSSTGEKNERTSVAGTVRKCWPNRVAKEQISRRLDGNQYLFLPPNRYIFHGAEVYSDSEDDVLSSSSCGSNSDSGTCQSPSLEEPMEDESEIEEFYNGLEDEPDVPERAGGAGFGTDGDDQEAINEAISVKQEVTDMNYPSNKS
Experiment: Mass spectrometry based SIRT1 deacetylase activation assay (acetylated p53-derived peptide substrate)
Assay type: biochemical
Conditions: 0.5 μM peptide substrate, 120 μM βNAD+, 10 nM SIRT1, 25 minutes at 25° C.

With `O=C(Nc1nccs1)c1cccc2[nH]c(-c3ccc(N4CC[C@H](F)C4)cc3C(F)F)nc12` [Compound 731] the EC1.5 was “A (EC1.5<1.0 uM)” and the “Fold Act. (percent maximum fold activation)” value was “A (Fold activation >200%)”.
With `Cc1cnc(NC(=O)c2cccc3[nH]c(-c4ccc(N5CC[C@H](F)C5)cc4C(F)F)nc23)s1` [Compound 732] the EC1.5 was “A (EC1.5<1.0 uM)” and the “Fold Act. (percent maximum fold activation)” value was “A (Fold activation >200%)”.
In the case of `O=C(Nc1ccccn1)c1cccc2[nH]c(-c3ccc(N4CC[C@H](F)C4)cc3C(F)F)nc12` [Compound 733], the EC1.5 was “A (EC1.5<1.0 uM)” and the “Fold Act. (percent maximum fold activation)” value was “A (Fold activation >200%)”.
In the case of `O=C(Nc1nccs1)c1cc(N2CCOCC2)cc2[nH]c(-c3ccccc3C(F)F)nc12` [Compound 734], the EC1.5 was “A (EC1.5<1.0 uM)” and the “Fold Act. (percent maximum fold activation)” value was “A (Fold activation >200%)”.
For `O=C(Nc1cccnc1)c1cc(N2CCOCC2)cc2[nH]c(-c3ccccc3C(F)F)nc12` [Compound 735], the EC1.5 was “A (EC1.5<1.0 uM)” and the “Fold Act. (percent maximum fold activation)” value was “A (Fold activation >200%)”.
`O=C(Nc1ccccn1)c1cc(N2CCOCC2)cc2[nH]c(-c3ccccc3C(F)F)nc12` [Compound 736] was tested, and the EC1.5 was “A (EC1.5<1.0 uM)” and the “Fold Act. (percent maximum fold activation)” value was “A (Fold activation >200%)”.
`O=C(Nc1cccnn1)c1cc(N2CCOCC2)cc2[nH]c(-c3ccccc3C(F)F)nc12` [Compound 737] was tested, and the EC1.5 was “A (EC1.5<1.0 uM)” and the “Fold Act. (percent maximum fold activation)” value was “A (Fold activation >200%)”.
With `O=C(Nc1cccc(OC[C@@H](O)CO)c1)c1cncc2[nH]c(-c3ccc(Cl)cc3C(F)(F)F)nc12` [Compound 738] the EC1.5 was “A (EC1.5<1.0 uM)” and the “Fold Act. (percent maximum fold activation)” value was “A (Fold activation >200%)”.
In the case of `O=C(Nc1cccc(OC[C@H](O)CO)c1)c1cncc2[nH]c(-c3ccc(Cl)cc3C(F)(F)F)nc12` [Compound 739], the EC1.5 was “A (EC1.5<1.0 uM)” and the “Fold Act. (percent maximum fold activation)” value was “A (Fold activation >200%)”.
For `O=C(Nc1cccc(OCC(O)CO)c1)c1cccc2[nH]c(-c3ccc(Cl)cc3C(F)(F)F)nc12` (stereo not drawn) [Compound 740], the EC1.5 was “A (EC1.5<1.0 uM)” and the “Fold Act. (percent maximum fold activation)” value was “A (Fold activation >200%)”.
In the case of `O=C(Nc1cccc(OCC(O)CO)c1)c1cccc2[nH]c(-c3cc(F)ccc3C(F)(F)F)nc12` (stereo not drawn) [Compound 741], the EC1.5 was “A (EC1.5<1.0 uM)” and the “Fold Act. (percent maximum fold activation)” value was “A (Fold activation >200%)”.
With `O=C(Nc1nccs1)c1cccc2[nH]c(-c3ccc(OC[C@H](O)CO)cc3C(F)(F)F)nc12` [Compound 742] the EC1.5 was “A (EC1.5<1.0 uM)” and the “Fold Act. (percent maximum fold activation)” value was “A (Fold activation >200%)”.
`Cc1cnc(NC(=O)c2cccc3[nH]c(-c4ccc(OC[C@H](O)CO)cc4C(F)(F)F)nc23)s1` [Compound 743] was tested, and the EC1.5 was “A (EC1.5<1.0 uM)” and the “Fold Act. (percent maximum fold activation)” value was “A (Fold activation >200%)”.
`O=C(Nc1ccccn1)c1cccc2[nH]c(-c3ccc(OC[C@H](O)CO)cc3C(F)(F)F)nc12` [Compound 744] was tested, and the EC1.5 was “A (EC1.5<1.0 uM)” and the “Fold Act. (percent maximum fold activation)” value was “A (Fold activation >200%)”.
With `O=C(Nc1nccs1)c1cccc2[nH]c(-c3ccc(OC[C@@H](O)CO)cc3C(F)(F)F)nc12` [Compound 745] the EC1.5 was “A (EC1.5<1.0 uM)” and the “Fold Act. (percent maximum fold activation)” value was “A (Fold activation >200%)”.
With `Cc1cnc(NC(=O)c2cccc3[nH]c(-c4ccc(OC[C@@H](O)CO)cc4C(F)(F)F)nc23)s1` [Compound 746] the EC1.5 was “A (EC1.5<1.0 uM)” and the “Fold Act. (percent maximum fold activation)” value was “A (Fold activation >200%)”.
For `O=C(Nc1cccc(OC[C@@H](O)CO)c1)c1cncc2[nH]c(-c3ccccc3C(F)(F)F)nc12` [Compound 747], the EC1.5 was “A (EC1.5<1.0 uM)” and the “Fold Act. (percent maximum fold activation)” value was “A (Fold activation >200%)”.
`O=C(Nc1cccc(OC[C@H](O)CO)c1)c1cncc2[nH]c(-c3ccccc3C(F)(F)F)nc12` [Compound 748] was tested, and the EC1.5 was “A (EC1.5<1.0 uM)” and the “Fold Act. (percent maximum fold activation)” value was “A (Fold activation >200%)”.
`O=C(Nc1nccs1)c1cc(N2CCOCC2)cc2[nH]c(-c3ccc(F)cc3C(F)F)nc12` [Compound 749] was tested, and the EC1.5 was “A (EC1.5<1.0 uM)” and the “Fold Act. (percent maximum fold activation)” value was “A (Fold activation >200%)”.
With `O=C(Nc1ccccn1)c1cc(N2CCOCC2)cc2[nH]c(-c3ccc(F)cc3C(F)F)nc12` [Compound 750] the EC1.5 was “A (EC1.5<1.0 uM)” and the “Fold Act. (percent maximum fold activation)” value was “A (Fold activation >200%)”.
`O=C(Nc1cccnc1)c1cc(N2CCOCC2)cc2[nH]c(-c3ccc(F)cc3C(F)F)nc12` [Compound 751] was tested, and the EC1.5 was “A (EC1.5<1.0 uM)” and the “Fold Act. (percent maximum fold activation)” value was “A (Fold activation >200%)”.
`O=C(Nc1cccnn1)c1cc(N2CCOCC2)cc2[nH]c(-c3ccc(F)cc3C(F)F)nc12` [Compound 752] was tested, and the EC1.5 was “A (EC1.5<1.0 uM)” and the “Fold Act. (percent maximum fold activation)” value was “A (Fold activation >200%)”.
`O=C(Nc1ccc(OC[C@@H](O)CO)cc1)c1cccc2[nH]c(-c3cccnc3)nc12` [Compound 753] was tested, and the EC1.5 was “A (EC1.5<1.0 uM)” and the “Fold Act. (percent maximum fold activation)” value was “A (Fold activation >200%)”.
With `O=C(Nc1ccccc1)c1cccc2[nH]c(-c3ccc(Cl)cc3C(F)(F)F)nc12` [Compound 754] the EC1.5 was “A (EC1.5<1.0 uM)” and the “Fold Act. (percent maximum fold activation)” value was “A (Fold activation >200%)”.
With `O=C(Nc1ccccc1)c1cccc2[nH]c(-c3ccc(F)cc3C(F)(F)F)nc12` [Compound 755] the EC1.5 was “A (EC1.5<1.0 uM)” and the “Fold Act. (percent maximum fold activation)” value was “A (Fold activation >200%)”.
`O=C(Nc1ccccc1)c1cccc2[nH]c(-c3cc(F)ccc3C(F)(F)F)nc12` [Compound 756] was tested, and the EC1.5 was “A (EC1.5<1.0 uM)” and the “Fold Act. (percent maximum fold activation)” value was “A (Fold activation >200%)”.
In the case of `O=C(Nc1nccs1)c1cncc2[nH]c(-c3ccc(OC[C@@H](O)CO)cc3C(F)(F)F)nc12` [Compound 758], the EC1.5 was “A (EC1.5<1.0 uM)” and the “Fold Act. (percent maximum fold activation)” value was “A (Fold activation >200%)”.
In the case of `Cc1cnc(NC(=O)c2cncc3[nH]c(-c4ccc(OC[C@@H](O)CO)cc4C(F)(F)F)nc23)s1` [Compound 759], the EC1.5 was “A (EC1.5<1.0 uM)” and the “Fold Act. (percent maximum fold activation)” value was “A (Fold activation >200%)”.
In the case of `O=C(Nc1ccccn1)c1cncc2[nH]c(-c3ccc(OC[C@@H](O)CO)cc3C(F)(F)F)nc12` [Compound 760], the EC1.5 was “A (EC1.5<1.0 uM)” and the “Fold Act. (percent maximum fold activation)” value was “A (Fold activation >200%)”.
`O=C(Nc1nccs1)c1cncc2[nH]c(-c3ccc(OC[C@H](O)CO)cc3C(F)(F)F)nc12` [Compound 761] was tested, and the EC1.5 was “A (EC1.5<1.0 uM)” and the “Fold Act. (percent maximum fold activation)” value was “A (Fold activation >200%)”.
For `Cc1cnc(NC(=O)c2cncc3[nH]c(-c4ccc(OC[C@H](O)CO)cc4C(F)(F)F)nc23)s1` [Compound 762], the EC1.5 was “A (EC1.5<1.0 uM)” and the “Fold Act. (percent maximum fold activation)” value was “A (Fold activation >200%)”.
With `O=C(Nc1ccccn1)c1cncc2[nH]c(-c3ccc(OC[C@H](O)CO)cc3C(F)(F)F)nc12` [Compound 763] the EC1.5 was “A (EC1.5<1.0 uM)” and the “Fold Act. (percent maximum fold activation)” value was “A (Fold activation >200%)”.
With `O=C(Nc1nccs1)c1cccc2nc(-c3ccc(N4CCCC4)cc3C(F)F)[nH]c12` [Compound 764] the EC1.5 was “A (EC1.5<1.0 uM)” and the “Fold Act. (percent maximum fold activation)” value was “A (Fold activation >200%)”.
In the case of `Cc1cnc(NC(=O)c2cccc3nc(-c4ccc(N5CCCC5)cc4C(F)F)[nH]c23)s1` [Compound 765], the EC1.5 was “A (EC1.5<1.0 uM)” and the “Fold Act. (percent maximum fold activation)” value was “A (Fold activation >200%)”.
`O=C(Nc1ccccn1)c1cccc2nc(-c3ccc(N4CCCC4)cc3C(F)F)[nH]c12` [Compound 766] was tested, and the EC1.5 was “B (EC1.5 1-25 uM)” and the “Fold Act. (percent maximum fold activation)” value was “A (Fold activation >200%)”.
For `O=C(Nc1cccnc1)c1cc(N2CCOCC2)cc2[nH]c(-c3cc(F)ccc3C(F)F)nc12` [Compound 767], the EC1.5 was “A (EC1.5<1.0 uM)” and the “Fold Act. (percent maximum fold activation)” value was “A (Fold activation >200%)”.
In the case of `O=C(Nc1nccs1)c1cc(N2CCOCC2)cc2[nH]c(-c3cc(F)ccc3C(F)F)nc12` [Compound 768], the EC1.5 was “A (EC1.5<1.0 uM)” and the “Fold Act. (percent maximum fold activation)” value was “A (Fold activation >200%)”.
In the case of `O=C(Nc1ccccn1)c1cc(N2CCOCC2)cc2[nH]c(-c3cc(F)ccc3C(F)F)nc12` [Compound 769], the EC1.5 was “A (EC1.5<1.0 uM)” and the “Fold Act. (percent maximum fold activation)” value was “A (Fold activation >200%)”.
With `O=C(Nc1cccnn1)c1cc(N2CCOCC2)cc2[nH]c(-c3cc(F)ccc3C(F)F)nc12` [Compound 770] the EC1.5 was “A (EC1.5<1.0 uM)” and the “Fold Act. (percent maximum fold activation)” value was “A (Fold activation >200%)”.
For `O=C(Nc1nccs1)c1cncc2nc(-c3ccc(OC[C@@H](O)CO)cc3C(F)F)[nH]c12` [Compound 771], the EC1.5 was “A (EC1.5<1.0 uM)” and the “Fold Act. (percent maximum fold activation)” value was “A (Fold activation >200%)”.
With `Cc1cnc(NC(=O)c2cncc3nc(-c4ccc(OC[C@@H](O)CO)cc4C(F)F)[nH]c23)s1` [Compound 772] the EC1.5 was “A (EC1.5<1.0 uM)” and the “Fold Act. (percent maximum fold activation)” value was “A (Fold activation >200%)”.
For `O=C(Nc1ccccn1)c1cncc2[nH]c(-c3ccc(OC[C@@H](O)CO)cc3C(F)F)nc12` [Compound 773], the EC1.5 was “A (EC1.5<1.0 uM)” and the “Fold Act. (percent maximum fold activation)” value was “A (Fold activation >200%)”.
